Experiments:
[1] = target: Alpha-2C adrenergic receptor (Homo sapiens) (UniProt P18825); settings: Compound concentration 10.0 uM
[2] = target: Alpha-1B adrenergic receptor (Homo sapiens) (UniProt P35368); settings: Compound concentration 10.0 uM
[3] = target: Muscarinic acetylcholine receptor M4 (Homo sapiens) (UniProt P08173); settings: Compound concentration 10.0 uM
[4] = target: Muscarinic acetylcholine receptor M5 (Homo sapiens) (UniProt P08912); settings: Compound concentration 10.0 uM
[5] = target: 5-hydroxytryptamine receptor 1E (Homo sapiens) (UniProt P28566); settings: Compound concentration 10.0 uM
[6] = target: 5-hydroxytryptamine receptor 1A (Homo sapiens) (UniProt P08908); settings: Compound concentration 10.0 uM
[7] = target: T1, Bromodomain-containing protein 2 (Homo sapiens, UniProt P25440); assay: BET mutant TR-FRET assay (BRD2 BD1)
[8] = target: D(1B) dopamine receptor (Homo sapiens) (UniProt P21918); settings: Compound concentration 10.0 uM
[9] = target: Sodium-dependent serotonin transporter (Homo sapiens) (UniProt P31645); settings: Compound concentration 10.0 uM
[10] = target: Histamine H3 receptor (Homo sapiens) (UniProt Q9Y5N1); settings: Compound concentration 10.0 uM
[11] = target: Muscarinic acetylcholine receptor M3 (Homo sapiens) (UniProt P20309); settings: Compound concentration 10.0 uM
[12] = target: 5-hydroxytryptamine receptor 2A (Homo sapiens) (UniProt P28223); settings: Compound concentration 10.0 uM
[13] = target: Histamine H1 receptor (Homo sapiens) (UniProt P35367); settings: Compound concentration 10.0 uM
[14] = target: T2, Bromodomain testis-specific protein (Homo sapiens, UniProt Q58F21); assay: BET mutant TR-FRET assay (BRDT BD2)
[15] = target: Sigma intracellular receptor 2 (Homo sapiens) (UniProt Q5BJF2); settings: Compound concentration 10.0 uM
[16] = target: D(3) dopamine receptor (Homo sapiens) (UniProt P35462); settings: Compound concentration 10.0 uM
[17] = target: D(1A) dopamine receptor (Homo sapiens) (UniProt P21728); settings: Compound concentration 10.0 uM
[18] = target: T3, GABA-A receptor; anion channel (Rattus norvegicus) (UniProt O09028+P15431+P18506+P18508+P19969+P20236+P23574+P23576+P28471+P28473+P30191+P62813+P63079+P63138+Q91ZM7+Q9ES14); settings: Compound concentration 10.0 uM
[19] = target: Beta-3 adrenergic receptor (Homo sapiens) (UniProt P13945); settings: Compound concentration 10.0 uM
[20] = target: Beta-2 adrenergic receptor (Homo sapiens) (UniProt P07550); settings: Compound concentration 10.0 uM
[21] = target: 5-hydroxytryptamine receptor 1D (Homo sapiens) (UniProt P28221); settings: Compound concentration 10.0 uM
[22] = target: T1, Bromodomain-containing protein 2; assay: BET mutant TR-FRET assay (BRD2 BD2)
[23] = target: Beta-1 adrenergic receptor (Homo sapiens) (UniProt P08588); settings: Compound concentration 10.0 uM
[24] = target: Alpha-1D adrenergic receptor (Homo sapiens) (UniProt P25100); settings: Compound concentration 10.0 uM
[25] = target: 5-hydroxytryptamine receptor 3A (Homo sapiens) (UniProt P46098); settings: Compound concentration 10.0 uM
[26] = target: 5-hydroxytryptamine receptor 2C (Homo sapiens) (UniProt P28335); settings: Compound concentration 10.0 uM
[27] = target: D(4) dopamine receptor (Homo sapiens) (UniProt P21917); settings: Compound concentration 10.0 uM
[28] = target: Sodium-dependent noradrenaline transporter (Homo sapiens) (UniProt P23975); settings: Compound concentration 10.0 uM
[29] = target: 5-hydroxytryptamine receptor 1B (Homo sapiens) (UniProt P28222); settings: Compound concentration 10.0 uM
[30] = target: T4, Bromodomain-containing protein 3 (Homo sapiens, UniProt Q15059); assay: BET mutant TR-FRETassay (BRD3 BD1)
[31] = target: T4, Bromodomain-containing protein 3; assay: BET mutant TR-FRET assay (BRD3 BD2)
[32] = target: T2, Bromodomain testis-specific protein; assay: BET mutant TR-FRET assay (BRDT BD1)
Rattus norvegicus = organism: Rattus norvegicus; settings: Compound concentration 10.0 uM
[33] = target: 5-hydroxytryptamine receptor 5A (Homo sapiens) (UniProt P47898); settings: Compound concentration 10.0 uM
[34] = target: Sodium-dependent dopamine transporter (Homo sapiens) (UniProt Q01959); settings: Compound concentration 10.0 uM
[35] = target: T3, GABA-A receptor; anion channel (Rattus norvegicus); settings: Compound concentration 10.0 uM; remark: listed apart in the source
[36] = target: GABA-A receptor; anion channel; assay: GPCRScan assay: inhibition of GABAA/BZP; format: protein-complex assay, Rattus norvegicus; design: radioligand conc. used [nm] 0.6 – 4.0, parental cells brain tissue
[37] = target: Histamine H2 receptor (Homo sapiens) (UniProt P25021); settings: Compound concentration 10.0 uM
[38] = target: Muscarinic acetylcholine receptor M2 (Homo sapiens) (UniProt P08172); settings: Compound concentration 10.0 uM
[39] = target: Muscarinic acetylcholine receptor M1 (Homo sapiens) (UniProt P11229); settings: Compound concentration 10.0 uM
[40] = target: Alpha-2A adrenergic receptor (Homo sapiens) (UniProt P08913); settings: Compound concentration 10.0 uM
[41] = target: Alpha-1A adrenergic receptor (Homo sapiens) (UniProt P35348); settings: Compound concentration 10.0 uM
[42] = target: Alpha-2B adrenergic receptor (Homo sapiens) (UniProt P18089); settings: Compound concentration 10.0 uM

T1 sequence (P25440 whole entry, looked up, change not shown): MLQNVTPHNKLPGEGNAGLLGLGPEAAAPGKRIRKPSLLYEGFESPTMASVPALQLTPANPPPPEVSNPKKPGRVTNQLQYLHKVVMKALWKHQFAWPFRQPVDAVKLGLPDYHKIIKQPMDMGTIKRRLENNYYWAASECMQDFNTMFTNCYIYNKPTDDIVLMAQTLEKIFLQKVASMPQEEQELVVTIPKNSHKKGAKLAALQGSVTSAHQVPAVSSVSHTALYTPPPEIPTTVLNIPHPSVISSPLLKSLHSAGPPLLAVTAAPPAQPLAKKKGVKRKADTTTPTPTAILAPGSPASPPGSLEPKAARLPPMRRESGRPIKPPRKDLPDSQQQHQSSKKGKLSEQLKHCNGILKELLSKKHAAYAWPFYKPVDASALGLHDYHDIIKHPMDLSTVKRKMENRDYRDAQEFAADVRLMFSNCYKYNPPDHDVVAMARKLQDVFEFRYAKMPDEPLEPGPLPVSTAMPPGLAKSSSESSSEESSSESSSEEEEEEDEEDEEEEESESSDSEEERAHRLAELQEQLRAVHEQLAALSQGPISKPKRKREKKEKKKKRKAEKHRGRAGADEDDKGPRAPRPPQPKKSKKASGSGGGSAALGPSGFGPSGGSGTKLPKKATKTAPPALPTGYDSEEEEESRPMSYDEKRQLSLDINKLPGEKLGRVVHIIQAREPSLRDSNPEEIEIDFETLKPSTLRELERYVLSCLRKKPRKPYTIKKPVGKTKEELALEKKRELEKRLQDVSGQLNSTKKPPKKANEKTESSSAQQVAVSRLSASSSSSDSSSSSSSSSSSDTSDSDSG
T4 sequence (Q15059 2-726 limits assumed, change not shown): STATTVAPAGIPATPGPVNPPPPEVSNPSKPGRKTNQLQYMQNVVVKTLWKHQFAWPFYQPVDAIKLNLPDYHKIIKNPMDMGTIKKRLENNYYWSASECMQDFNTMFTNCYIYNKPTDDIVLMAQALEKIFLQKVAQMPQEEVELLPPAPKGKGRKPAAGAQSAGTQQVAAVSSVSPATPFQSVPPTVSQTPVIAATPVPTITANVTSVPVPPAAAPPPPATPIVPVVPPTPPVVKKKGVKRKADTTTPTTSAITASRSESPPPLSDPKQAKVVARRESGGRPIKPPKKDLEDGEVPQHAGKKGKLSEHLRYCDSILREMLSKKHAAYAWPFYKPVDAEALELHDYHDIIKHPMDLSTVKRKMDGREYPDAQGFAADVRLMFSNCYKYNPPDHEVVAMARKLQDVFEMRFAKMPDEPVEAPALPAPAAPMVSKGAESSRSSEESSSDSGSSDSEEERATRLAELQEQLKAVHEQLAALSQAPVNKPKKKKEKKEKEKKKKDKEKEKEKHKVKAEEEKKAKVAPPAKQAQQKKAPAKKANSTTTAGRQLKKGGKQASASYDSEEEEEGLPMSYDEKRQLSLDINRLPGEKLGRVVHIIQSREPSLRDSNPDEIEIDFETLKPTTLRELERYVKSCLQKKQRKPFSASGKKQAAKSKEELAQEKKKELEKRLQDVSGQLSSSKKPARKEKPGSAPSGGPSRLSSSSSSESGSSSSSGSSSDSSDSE
5-hydroxytryptamine receptor 1D (Homo sapiens), sequence (P28221 whole entry): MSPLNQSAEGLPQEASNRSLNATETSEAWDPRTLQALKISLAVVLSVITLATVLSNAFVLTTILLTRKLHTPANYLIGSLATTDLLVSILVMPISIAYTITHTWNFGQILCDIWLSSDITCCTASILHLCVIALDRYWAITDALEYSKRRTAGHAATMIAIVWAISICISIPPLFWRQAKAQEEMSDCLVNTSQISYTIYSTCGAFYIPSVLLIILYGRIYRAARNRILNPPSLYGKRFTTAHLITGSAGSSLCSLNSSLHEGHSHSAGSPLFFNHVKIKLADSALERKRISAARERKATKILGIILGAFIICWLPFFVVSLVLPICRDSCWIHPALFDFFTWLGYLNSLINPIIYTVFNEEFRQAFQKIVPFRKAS
D(1B) dopamine receptor (Homo sapiens), sequence (P21918 whole entry): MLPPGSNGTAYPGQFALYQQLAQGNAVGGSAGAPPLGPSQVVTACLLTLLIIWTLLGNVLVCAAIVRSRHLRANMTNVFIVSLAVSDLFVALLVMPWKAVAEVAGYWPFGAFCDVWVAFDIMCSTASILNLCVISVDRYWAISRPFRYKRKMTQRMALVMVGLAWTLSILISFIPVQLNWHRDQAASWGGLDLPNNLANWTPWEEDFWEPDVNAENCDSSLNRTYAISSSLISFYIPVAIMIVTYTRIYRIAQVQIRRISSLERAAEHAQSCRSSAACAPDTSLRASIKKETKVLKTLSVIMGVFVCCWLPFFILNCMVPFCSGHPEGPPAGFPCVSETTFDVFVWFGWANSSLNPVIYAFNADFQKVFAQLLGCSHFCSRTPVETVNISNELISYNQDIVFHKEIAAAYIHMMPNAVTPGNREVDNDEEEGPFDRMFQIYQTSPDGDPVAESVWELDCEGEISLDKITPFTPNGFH
5-hydroxytryptamine receptor 3A (Homo sapiens), sequence (P46098 whole entry): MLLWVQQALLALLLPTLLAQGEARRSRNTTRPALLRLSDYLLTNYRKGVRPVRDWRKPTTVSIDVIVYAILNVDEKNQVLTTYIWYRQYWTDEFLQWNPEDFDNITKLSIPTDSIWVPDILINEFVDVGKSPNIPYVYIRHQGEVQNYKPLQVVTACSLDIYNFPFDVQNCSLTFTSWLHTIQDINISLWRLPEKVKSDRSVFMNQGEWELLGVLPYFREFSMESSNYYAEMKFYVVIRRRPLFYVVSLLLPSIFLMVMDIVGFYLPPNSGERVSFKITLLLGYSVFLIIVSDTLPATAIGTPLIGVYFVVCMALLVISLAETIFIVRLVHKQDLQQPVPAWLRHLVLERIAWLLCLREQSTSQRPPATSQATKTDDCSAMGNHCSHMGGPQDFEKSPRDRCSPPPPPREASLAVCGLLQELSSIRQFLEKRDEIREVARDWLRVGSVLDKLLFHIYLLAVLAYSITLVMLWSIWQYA
Histamine H2 receptor (Homo sapiens), sequence (P25021 whole entry): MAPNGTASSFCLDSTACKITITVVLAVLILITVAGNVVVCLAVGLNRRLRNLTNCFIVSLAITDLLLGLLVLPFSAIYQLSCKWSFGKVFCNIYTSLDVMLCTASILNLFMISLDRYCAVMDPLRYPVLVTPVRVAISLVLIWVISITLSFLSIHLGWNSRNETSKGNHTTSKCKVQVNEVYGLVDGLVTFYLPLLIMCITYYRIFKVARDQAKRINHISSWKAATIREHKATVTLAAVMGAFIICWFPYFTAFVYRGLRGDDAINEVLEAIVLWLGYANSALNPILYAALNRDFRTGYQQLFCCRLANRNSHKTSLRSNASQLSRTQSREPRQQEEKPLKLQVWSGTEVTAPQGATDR
Beta-3 adrenergic receptor (Homo sapiens), sequence (P13945 whole entry, looked up): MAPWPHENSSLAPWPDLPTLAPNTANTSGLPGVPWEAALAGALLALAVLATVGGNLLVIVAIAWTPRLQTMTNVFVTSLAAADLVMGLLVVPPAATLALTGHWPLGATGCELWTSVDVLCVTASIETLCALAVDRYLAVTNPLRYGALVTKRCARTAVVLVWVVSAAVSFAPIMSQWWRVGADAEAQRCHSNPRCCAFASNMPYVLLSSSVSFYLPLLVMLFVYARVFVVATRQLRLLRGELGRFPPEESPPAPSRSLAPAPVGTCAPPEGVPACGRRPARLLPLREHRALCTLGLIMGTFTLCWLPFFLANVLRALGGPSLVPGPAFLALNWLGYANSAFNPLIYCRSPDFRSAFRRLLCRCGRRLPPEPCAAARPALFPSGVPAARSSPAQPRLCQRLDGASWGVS
D(4) dopamine receptor (Homo sapiens), sequence (P21917 whole entry): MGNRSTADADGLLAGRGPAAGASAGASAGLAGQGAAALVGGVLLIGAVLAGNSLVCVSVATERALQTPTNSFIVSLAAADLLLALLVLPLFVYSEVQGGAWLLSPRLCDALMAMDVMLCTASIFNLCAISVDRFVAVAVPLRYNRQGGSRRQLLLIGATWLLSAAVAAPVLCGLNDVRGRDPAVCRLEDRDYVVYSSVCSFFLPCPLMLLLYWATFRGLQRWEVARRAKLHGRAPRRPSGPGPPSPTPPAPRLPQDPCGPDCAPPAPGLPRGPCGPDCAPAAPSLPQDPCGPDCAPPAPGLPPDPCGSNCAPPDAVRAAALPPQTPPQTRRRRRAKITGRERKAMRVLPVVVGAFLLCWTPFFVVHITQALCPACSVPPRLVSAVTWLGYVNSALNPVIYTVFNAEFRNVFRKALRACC
Alpha-1B adrenergic receptor (Homo sapiens), sequence (P35368 whole entry): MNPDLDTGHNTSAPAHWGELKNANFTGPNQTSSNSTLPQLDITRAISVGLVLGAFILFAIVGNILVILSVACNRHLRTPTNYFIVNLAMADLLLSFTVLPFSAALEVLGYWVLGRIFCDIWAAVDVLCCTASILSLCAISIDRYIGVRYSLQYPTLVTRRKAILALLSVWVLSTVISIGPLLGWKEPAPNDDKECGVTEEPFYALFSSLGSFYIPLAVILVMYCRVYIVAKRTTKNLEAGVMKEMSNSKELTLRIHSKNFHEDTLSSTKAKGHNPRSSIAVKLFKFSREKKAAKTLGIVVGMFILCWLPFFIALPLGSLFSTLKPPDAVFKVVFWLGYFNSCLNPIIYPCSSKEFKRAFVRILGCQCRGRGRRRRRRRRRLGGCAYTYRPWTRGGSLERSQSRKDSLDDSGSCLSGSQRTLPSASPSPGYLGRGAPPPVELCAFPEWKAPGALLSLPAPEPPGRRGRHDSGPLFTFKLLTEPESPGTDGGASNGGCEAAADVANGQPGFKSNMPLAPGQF
D(3) dopamine receptor (Homo sapiens), sequence (P35462 whole entry): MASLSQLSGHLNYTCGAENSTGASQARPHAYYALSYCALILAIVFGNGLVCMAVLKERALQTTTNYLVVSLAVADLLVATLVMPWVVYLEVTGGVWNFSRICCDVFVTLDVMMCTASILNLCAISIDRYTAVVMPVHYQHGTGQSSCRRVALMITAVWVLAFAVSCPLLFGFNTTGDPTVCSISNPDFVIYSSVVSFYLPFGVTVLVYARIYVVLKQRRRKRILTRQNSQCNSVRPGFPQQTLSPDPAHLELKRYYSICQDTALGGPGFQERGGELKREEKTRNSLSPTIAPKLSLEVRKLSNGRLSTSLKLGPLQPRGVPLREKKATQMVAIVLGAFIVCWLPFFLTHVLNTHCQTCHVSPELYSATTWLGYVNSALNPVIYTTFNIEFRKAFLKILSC

Cc1cc2c(-c3ccco3)cnc(N[C@H]3CCN(C)C[C@@H]3C(=O)NC3CCCCC3)c2[nH]c1=O [GSK791]
inhibition [1]: 10.8% | inhibition [2]: 1.98% | inhibition [3]: -3% | inhibition [4]: 7.44% | inhibition [5]: 9.79% | inhibition [6]: 16.9% | pIC50 [7]: 5.6 | inhibition [8]: 35.4% | inhibition [9]: 13.8% | inhibition [10]: -2.09% | inhibition [11]: 28.9% | inhibition [12]: 2.71% | inhibition [13]: 11.7% | pIC50 [14]: 5.1 | inhibition [15]: 44.1% | inhibition [16]: 15.5% | inhibition [17]: 21.2% | inhibition [18]: 86.3% | inhibition [19]: 35.1% | inhibition [20]: 4.04% | inhibition [21]: 33.1% | pIC50 [22]: 4.8 | inhibition [23]: 2.98% | inhibition [24]: 7.87% | inhibition [25]: 1.04% | inhibition [26]: 3.86% | inhibition [27]: 17.4% | inhibition [28]: 32.4% | inhibition [29]: 1.93% | pIC50 [30]: 5.4 | pIC50 [31]: 4.7 | pIC50 [32]: 5.2 | inhibition (Rattus norvegicus): -8.18% | inhibition [33]: 10.1% | inhibition [34]: 8.66% | inhibition [35]: 14.9% | Ki [36]: 2540 nM | inhibition [37]: 21.6% | inhibition [38]: 5.25% | inhibition [39]: 12% | inhibition [40]: 9.8% | inhibition [41]: 10.1% | inhibition [42]: 28.5%

From ChEMBL document CHEMBL4630905 (2021)
